Article PMC4052546 (Pharmaceuticals, 2011)
Where “and” joins values, the source holds several entries; their conditions need not be identical. Identical values can stand only once. Like-named read-outs stand apart in the source and are kept apart here.

Experiments:
[1] = Pharmacokinetics of AS and DHA in rat plasma after single and multiple intravenous AS injections (automated blood sampler, LC-MS/MS);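 as to all read-outs here: blood drawn through a jugular vein catheter by an automated sampling system, plasma drug levels measured by LC-MS/MS with positive electrospray ionization against standard curves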; assay type: in vivo, Sprague-Dawley rats; details: for AUC0–3 h / Cmin / Degree of Fluctuation = 100% × (Cmax − Cmin)/Cav / Cmax / MRT / Tmax / AUC(0-t) / AUC / half-life / average plasma concentration over 0–72 h (Cav = AUC0–72 h/72): 20 mg/kg i.v. daily for 3 days, male rats; for Cmax / MRT / Tmax / AUC(0-t) / AUC / half-life / average plasma concentration over 0–72 h (Cav = AUC0–72 h/72): male, Sprague-Dawley, rat, plasma, iv, 20 mg/kg; for AUC(0-t): read-out: AUC0–3 h; for AUC: read-out: AUCinfininty
Procedure: The Culex ABS is a blood sampling and metabolism monitoring machine, which is controlled by its own internal computer. We were successful in evaluating PK for long-term periods by using this system. After jugular vein cannulation, study animals were individually placed in the system, which allowed for a micro-pump to infuse heparinized-saline (10 unit heparin/mL saline) at a rate of 1-2 μL/min to prevent coagulation within the catheter. Culex samples were obtained with precise blood volumes from the study animals and the total volume taken was less than 6% per day and 14% during the entire study period. Blood samples were maintained at 3 °C using Culex's temperature-controlled fractional collector. Plasma was separated from the blood samples and processed for drug extraction.
(§1) Three samples were collected during each phase of absorption, distribution, or elimination for full PK analysis on the first and last dosing days following intravenous bonus injection. Additionally, trough levels (pre-dose) samples were collected in between each dose to follow drug accumulation and a series PK approach (18 samples per animal) was used. Thus, each animal was dosed and plasma samples were obtained for up to three days. A total of 18 (0, 5, 15, 30, 45 min, 1, 2, 3, 6, 24.25, 48.167, 48.25, 48.5, 48.75, 49, 50, 51, and 54 h) samples were collected into cooled vials. 50 μL of blood per sample was collected pre-dosing and after dosing and 100 μL per sample was taken from 0.08 h to 56 h after dosing. During collection, blood samples were added into the vials, which contained dried heparin (50 units) on the bottom of each vial. Thus, a total blood volume of 1.75 mL was obtained from each rat during the three day treatment period (0.85 mL of blood on day 0, 0.1 mL on day 1, and 0.9 mL on day 2), which is 9.3% of the animals total blood volume. Subjects for replicated crossover design were followed FDA recommendation [22] with a 2 week wash out period. During wash-out period, if the catheter was blocked up by any reasons the jugular vein tubes were infused or replaced.
The samples were vortexed vigorously (set at 10 or max setting) for 8–10 sec followed by a 10,000 × g centrifugation at 4 °C for 10 min. Aliquots (approximately 250 μL ea) of the undisturbed supernatants were transferred into a 96-well plate for LC-MS/MS analyses. […] Drugs were chromatographically separated using an acetonitrile/ammonium acetate gradient through a Waters XTerra C18 column (2.1 × 50 mm, 3.5 μm particle size) and corresponding pre-column. Quantification was done using the most abundant daughter ions following positive electrospray ionization. Chromatograms were analyzed using Xcalibur mass spectrometry software. The responses-concentrations standard curves were fitted and weighted.
The area under the curve (AUC) was determined by the linear trapezoidal rule with extrapolation to infinity based on the concentration of the last time point divided by the terminal rate constant. The bioequivalence (BE) evaluation of the two formulations were analyzed by using BE software (WinNonlin 5.2, Pharsight Co. Mountain View, CA. USA) in rats for a NDA application.

[2] = more active; cited from earlier work
[3] = cited from earlier work
[4] = rat, in vivo
Source text: An automated blood sampler (Culex ABS, Bioanalytical Systems, Inc. West Lafayette, IN) was used for rat blood sample collection.
as §1
The area under the curve (AUC) was determined by the linear trapezoidal rule with extrapolation to infinity based on the concentration of the last time point divided by the terminal rate constant.

[5] = Chinese formulation (AS/NaHCO3), Period 1, Day 3
[6] = Chinese formulation (AS/NaHCO3), Period 2, Day 3
[7] = WRAIR formulation (AS/0.3M PBS Buffer), Period 1, Day 3
[8] = WRAIR formulation (AS/0.3M PBS Buffer), Period 2, Day 3
[9] = Chinese formulation (AS/NaHCO3), Period 1, Day 1
[10] = Chinese formulation (AS/NaHCO3), Period 2, Day 1
[11] = WRAIR formulation (AS/0.3M PBS Buffer), Period 1, Day 1
[12] = WRAIR formulation (AS/0.3M PBS Buffer), Period 2, Day 1
[13] = male, Sprague-Dawley, iv, 20 mg/kg, 1 day

AUC0–3 h [1, 5]: 990.8 ± 224.7 ng·h/mL
Cmin [1, 5]: 2.96 ± 2.31 ng/mL
Degree of Fluctuation = 100% × (Cmax − Cmin)/Cav [1, 5]: 860% and 860.1 ± 121.1%
AUC0–3 h [1, 6]: 905.2 ± 188.7 ng·h/mL
Cmin [1, 6]: 4.52 ± 2.25 ng/mL
Degree of Fluctuation = 100% × (Cmax − Cmin)/Cav [1, 6]: 844 ± 64%
time at which Cmax was measured ([1]; Chinese formulation, 20 mg/kg i.v., rats, period 1, day 1): 15 min
time at which Cmax was measured ([1]; Chinese formulation, 20 mg/kg i.v., rats, period 2, day 1): 15 min
time at which Cmax was observed ([1]; Chinese formulation, 20 mg/kg i.v., rats, period 2, day 3): 15 min
Cmin [1, 7]: 6.59 ± 3.06 ng/mL
Cmin [1, 8]: 5.38 ± 3.77 ng/mL
time at which Cmax was measured ([1]; WRAIR formulation, 20 mg/kg i.v., rats, period 1, day 1): 15 min
Cmax [1, 9]: 3360 ng/mL
MRT [1, 9]: 22.8 ± 7.8 min
Tmax [1, 9]: 15 min
AUC(0-t) [1, 9]: 1570 ng·h/mL
AUC [1, 9]: 1570 ± 350 ng·h/mL
half-life ([1]; Chinese formulation (AS/NaHCO3), Period 1, Day 1, read-out: t1/2 distribution (converted)): 7.2 ± 1.2 min
half-life ([1]; Chinese formulation (AS/NaHCO3), Period 1, Day 1, read-out: t1/2 elimination (converted)): 45 ± 6 min
Cmax [1, 5]: 2780 ng/mL
MRT [1, 5]: 21 ± 3.6 min
Tmax [1, 5]: 10.2 ± 5.4 min
average plasma concentration over 0–72 h (Cav = AUC0–72 h/72) [1, 5]: 330 ng·h/mL
AUC(0-t) [1, 5]: 991 ng·h/mL
AUC [1, 5]: 994 ± 225 ng·h/mL
half-life ([1]; Chinese formulation (AS/NaHCO3), Period 1, Day 3, read-out: t1/2 distribution (converted)): 5.4 ± 0.6 min
half-life ([1]; Chinese formulation (AS/NaHCO3), Period 1, Day 3, read-out: t1/2 elimination (converted)): 40.8 ± 9 min
Cmax [1, 10]: 2690 ng/mL
MRT [1, 10]: 27.6 ± 8.4 min
Tmax [1, 10]: 15 min
AUC(0-t) [1, 10]: 1220 ng·h/mL
AUC [1, 10]: 1230 ± 266 ng·h/mL
half-life ([1]; Chinese formulation (AS/NaHCO3), Period 2, Day 1, read-out: t1/2 distribution (converted)): 7.2 ± 1.2 min
half-life ([1]; Chinese formulation (AS/NaHCO3), Period 2, Day 1, read-out: t1/2 elimination (converted)): 43.8 ± 10.2 min
Cmax [1, 6]: 2450 ng/mL
MRT [1, 6]: 22.8 ± 1.2 min
Tmax [1, 6]: 15 min
AUC(0-t) [1, 6]: 905 ng·h/mL
AUC [1, 6]: 910 ± 188 ng·h/mL
half-life ([1]; Chinese formulation (AS/NaHCO3), Period 2, Day 3, read-out: t1/2 distribution (converted)): 4.8 ± 0.6 min
half-life ([1]; Chinese formulation (AS/NaHCO3), Period 2, Day 3, read-out: t1/2 elimination (converted)): 43.2 ± 7.2 min
Cmax [1, 11]: 3150 ng/mL
MRT [1, 11]: 23.4 ± 4.8 min
Tmax [1, 11]: 15 min
AUC(0-t) [1, 11]: 1460 ng·h/mL
AUC [1, 11]: 1460 ± 211 ng·h/mL
half-life ([1]; WRAIR formulation (AS/0.3M PBS Buffer), Period 1, Day 1, read-out: t1/2 distribution (converted)): 7.2 ± 0.6 min
half-life ([1]; WRAIR formulation (AS/0.3M PBS Buffer), Period 1, Day 1, read-out: t1/2 elimination (converted)): 58.8 ± 8.4 min
Cmax [1, 7]: 2810 ng/mL
MRT [1, 7]: 20.4 ± 6.6 min
Tmax [1, 7]: 15 min
average plasma concentration over 0–72 h (Cav = AUC0–72 h/72) [1, 7]: 367 ng·h/mL
AUC(0-t) [1, 7]: 1100 ng·h/mL
AUC [1, 7]: 1110 ± 174 ng·h/mL
half-life ([1]; WRAIR formulation (AS/0.3M PBS Buffer), Period 1, Day 3, read-out: t1/2 distribution (converted)): 5.4 ± 0.6 min
half-life ([1]; WRAIR formulation (AS/0.3M PBS Buffer), Period 1, Day 3, read-out: t1/2 elimination (converted)): 54 ± 7.2 min
Cmax [1, 12]: 3520 ng/mL
MRT [1, 12]: 24 ± 2.4 min
Tmax [1, 12]: 15 min
AUC(0-t) [1, 12]: 1510 ng·h/mL
AUC [1, 12]: 1510 ± 293 ng·h/mL
half-life ([1]; WRAIR formulation (AS/0.3M PBS Buffer), Period 2, Day 1, read-out: t1/2 distribution (converted)): 8.4 ± 0.6 min
half-life ([1]; WRAIR formulation (AS/0.3M PBS Buffer), Period 2, Day 1, read-out: t1/2 elimination (converted)): 54.6 ± 4.2 min
Cmax [1, 8]: 3120 ng/mL
MRT [1, 8]: 23.4 ± 1.8 min
Tmax [1, 8]: 15 min
AUC(0-t) [1, 8]: 1040 ng·h/mL
AUC [1, 8]: 1050 ± 160 ng·h/mL
half-life ([1]; WRAIR formulation (AS/0.3M PBS Buffer), Period 2, Day 3, read-out: t1/2 distribution (converted)): 5.4 ± 8.4 min
half-life ([1]; WRAIR formulation (AS/0.3M PBS Buffer), Period 2, Day 3, read-out: t1/2 elimination (converted)): 52.8 ± 8.4 min
90% CI for the difference between the two i.v. formulations, AUC1–3D ([4]; Sprague-Dawley, iv): 79.11–120.89%
90% CI of the difference between the two intravenous formulations, AUCD3 ([4]; Sprague-Dawley, iv, 3 day): 71.32–128.67%
90% CI for T/R, Lower, AUCD1 [4, 13]: 82.04%
90% CI for T/R, Upper, AUCD1 [4, 13]: 117.96%
BE (bioequivalence), AUCD1 [4]: Yes
BE (bioequivalence), Cmax D1 [4]: No
90% CI between the two intravenous formulations, AUC0–3 h ([4]; iv): 82.04–117.96%
Compound: C[C@H]1[C@@H](O)O[C@@H]2O[C@@]3(C)CC[C@H]4[C@H](C)CC[C@@H]1[C@@]24OO3 [DHA, dihydroartemisinin]
activity compared with other artemisinin derivatives [2]: 3-5 fold
elimination half-life (t1/2) [3]: 40 to 60 min
